Biological target: T1, aryl hydrocarbon receptor (AhR) (Homo sapiens, UniProt P35869)
T1 construct: The HepG2 CYP1A1-Luc cells do express basal luciferase activity that can be increased via potent AhR agonists or decreased via potent AhR antagonists; endogenous in cells; host or cells: HepG2 (DSMZ # ACC 180) stably carrying a CYP1A1 promoter-firefly luciferase reporter
T1 sequence (P35869 11-848): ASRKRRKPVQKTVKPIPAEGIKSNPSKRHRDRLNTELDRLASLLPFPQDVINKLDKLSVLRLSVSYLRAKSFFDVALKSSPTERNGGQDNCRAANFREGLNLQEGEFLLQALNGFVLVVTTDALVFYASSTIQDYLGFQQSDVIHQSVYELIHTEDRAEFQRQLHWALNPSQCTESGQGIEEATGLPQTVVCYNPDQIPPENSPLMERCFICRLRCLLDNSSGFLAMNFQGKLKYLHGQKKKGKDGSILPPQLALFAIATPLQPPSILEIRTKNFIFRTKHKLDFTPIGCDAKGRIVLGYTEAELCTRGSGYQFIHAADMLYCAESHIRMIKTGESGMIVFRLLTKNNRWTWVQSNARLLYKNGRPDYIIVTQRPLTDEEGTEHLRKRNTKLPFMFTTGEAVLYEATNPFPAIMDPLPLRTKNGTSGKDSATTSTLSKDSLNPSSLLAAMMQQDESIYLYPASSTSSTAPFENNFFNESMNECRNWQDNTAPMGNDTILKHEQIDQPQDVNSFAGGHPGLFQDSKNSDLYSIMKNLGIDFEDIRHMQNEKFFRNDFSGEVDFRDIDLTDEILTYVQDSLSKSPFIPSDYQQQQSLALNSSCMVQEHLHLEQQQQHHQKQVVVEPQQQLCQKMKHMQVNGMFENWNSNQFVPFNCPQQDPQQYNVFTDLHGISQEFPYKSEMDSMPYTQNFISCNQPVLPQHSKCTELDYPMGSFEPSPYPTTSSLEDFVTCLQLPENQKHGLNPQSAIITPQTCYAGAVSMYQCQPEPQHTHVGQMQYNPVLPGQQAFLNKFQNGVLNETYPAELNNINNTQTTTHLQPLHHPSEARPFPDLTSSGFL
Assay: AhR direct luciferase reporter assay in HepG2 cells (HepG2 CYP1A1-LUC)
Type: cell-based
Conditions: luciferase activity after 18 hours, no exogenous AhR agonist or 10 nM VAF347, read-out: AhR potency (AhR antagonistic potency, IC50)
Procedure: AhR Direct Luciferase Reporter Assay in HepG2 Cells.
A stable cell line (HepG2 CYP1A1-LUC) was used in which part of the promoter region of the human CYP1A1 gene is stably integrated into the genome of human HepG2 hepatocytes (DSZM # ACC 180) in front of a Photinus pyralis Firefly Luciferase gene. […] The resulting vector was linearized with NotI, transfected into HepG2 cells (DSMZ # ACC 180) and stably transfected clones selected with 250 μg/ml Hygromycin B. After repetitive rounds of subcloning and testing for robustly regulated luciferase activity after AhR agonist stimulation, a stable clonal HepG2 CYP1A1-Luc cell line was selected.
The HepG2 CYP1A1-Luc cells do express basal luciferase activity that can be increased via potent AhR agonists or decreased via potent AhR antagonists, added to the growth medium of the cells.
Cells are further cultivated for 18 hours and luciferase activities are determined from extracts of cells in buffers containing D-Luciferine and ATP using a LUMIstar Optima microplate Luminometer from BMG Labtech.

Question: Cn1nccc1C(=O)Nc1ccc2cc(-c3ccccc3F)[nH]c2c1 [1/1, N-(2-(2-FLUOROPHENYL)-1H-INDOL-6-YL)-1-METHYL-1H-PYRAZOLE-5-CARBOXAMIDE] was tested. Which IC50 did it give?
Answer: 100 to 1000 nM

Question: For Cn1nccc1C(=O)Nc1ccc2cc(-c3cccc(Cl)c3)[nH]c2c1 [1/2, N-(2-(3-CHLOROPHENYL)-1H-INDOL-6-YL)-1-METHYL-1H-PYRAZOLE-5-CARBOXAMIDE], which IC50 is on record?
Answer: 100 to 1000 nM

Question: How did the IC50 turn out when Cn1nccc1C(=O)Nc1ccc2cc(-c3ccccc3C(F)(F)F)[nH]c2c1 [2/1, 1-METHYL-N-(2-(2-(TRIFLUOROMETHYL)PHENYL)-1H-INDOL-6-YL)-1H-PYRAZOLE-5-CARBOXAMIDE] was run?
Answer: < 100 nM

Question: Which IC50 does the source give for Cn1nccc1C(=O)Nc1ccc2cc(-c3ccc(Cl)cc3Cl)[nH]c2c1 [2/2, N-(2-(2,4-DICHLOROPHENYL)-1H-INDOL-6-YL)-1-METHYL-1H-PYRAZOLE-5-CARBOXAMIDE] here?
Answer: 100 to 1000 nM

Question: Which IC50 does the source give for Cc1ccccc1-c1cc2ccc(NC(=O)c3ccnn3C(C)C)cc2[nH]1 [2/3, 1-ISOPROPYL-N-(2-(O-TOLYL)-1H-INDOL-6-YL)-1H-PYRAZOLE-5-CARBOXAMIDE] here?
Answer: > 1000 nM

Question: How did the IC50 turn out when Cn1ncnc1C(=O)Nc1ccc2cc(-c3ccccc3C(F)(F)F)[nH]c2c1 [2/4, 1-METHYL-N-(2-(2-(TRIFLUOROMETHYL)PHENYL)-1H-INDOL-6-YL)-1H-1,2,4-TRIAZOLE-5-CARBOXAMIDE] was run?
Answer: < 100 nM

Question: Which IC50 does the source give for O=C(Nc1ccc2cc(-c3ccccc3C(F)(F)F)[nH]c2c1)c1ccccn1 [2/5, N-(2-(2-(TRIFLUOROMETHYL)PHENYL)-1H-INDOL-6-YL)PICOLINAMIDE] here?
Answer: < 100 nM

Question: Cc1ccccc1-c1cc2ccc(NC(=O)c3ncnn3C)cc2[nH]1 [3/1, 1-METHYL-N-(2-(O-TOLYL)-1H-INDOL-6-YL)-1H-1,2,4-TRIAZOLE-5-CARBOXAMIDE] was tested. Which IC50 did it give?
Answer: < 100 nM

Question: Cc1ccccc1-c1cc2ccc(NC(=O)c3cccn3C)cc2[nH]1 [3/2, 1-METHYL-N-(2-(O-TOLYL)-1H-INDOL-6-YL)-1H-PYRROLE-2-CARBOXAMIDE] was tested. Which IC50 did it give?
Answer: < 100 nM

Question: For Cc1ccccc1-c1cc2ccc(NC(=O)c3ccco3)cc2[nH]1 [3/3, N-(2-(O-TOLYL)-1H-INDOL-6-YL)FURAN-2-CARBOXAMIDE], which IC50 is on record?
Answer: < 100 nM

Question: Which IC50 does the source give for Cc1ccccc1-c1cc2ccc(NC(=O)c3ccc(O)c(C(N)=O)c3)cc2[nH]1 [3/4, 4-HYDROXY-N^1-(2-(O-TOLYL)-1H-INDOL-6-YL)ISOPHTHALAMIDE] here?
Answer: > 1000 nM

Question: Which IC50 does the source give for Cc1ccccc1-c1cc2ccc(NC(=O)c3ccccn3)cc2[nH]1 [3/5, N-(2-(O-TOLYL)-1H-INDOL-6-YL)PICOLINAMIDE] here?
Answer: < 100 nM

Question: Which IC50 does the source give for Cc1cc2cc(-c3ccccc3C(F)(F)F)[nH]c2cc1NC(=O)c1ccccn1 [4/1, N-(5-METHYL-2-(2-(TRIFLUOROMETHYL)PHENYL)-1H-INDOL-6-YL)PICOLINAMIDE] here?
Answer: < 100 nM

Question: With Cn1nccc1C(=O)Nc1ccc2cc(-c3ccccc3C(F)F)[nH]c2c1 [6/1] as the molecule, how does the IC50 read?
Answer: < 100 nM

Question: Cn1ncnc1C(=O)Nc1ccc2cc(-c3cc(F)ccc3C(F)F)[nH]c2c1 [6/3] was tested. Which IC50 did it give?
Answer: < 100 nM

Question: For Cn1nccc1C(=O)Nc1ccc2cc(-c3cc(F)ccc3C(F)F)[nH]c2c1 [6/4], which IC50 is on record?
Answer: < 100 nM

Question: How did the IC50 turn out when Cn1ncnc1C(=O)Nc1ccc2cc(-c3cc(Cl)ccc3C(F)(F)F)[nH]c2c1 [6/5] was run?
Answer: < 100 nM

Question: With Cn1nccc1C(=O)Nc1ccc2cc(-c3cc(Cl)ccc3C(F)(F)F)[nH]c2c1 [6/6] as the molecule, how does the IC50 read?
Answer: < 100 nM

Question: With Cn1nccc1C(=O)Nc1ccc2cc(-c3ccccc3Cl)[nH]c2c1 [Example 2, N-(2-(2-Chlorophenyl)-1H-indol-6-yl)-1-methyl-1H-pyrazole-5-carboxamide] as the molecule, how does the IC50 read?
Answer: 100 to 1000 nM

Question: For Cc1ccccc1-c1cc2ccc(NC(=O)c3ccn[nH]3)cc2[nH]1 [Example 3, N-(2-(O-TOLYL)-1H-INDOL-6-YL)-1H-PYRAZOLE-5-CARBOXAMIDE], which IC50 is on record?
Answer: 100 to 1000 nM

Question: Which IC50 does the source give for Cc1cc2cc(-c3ccccc3C(F)(F)F)[nH]c2cc1NC(=O)c1ncnn1C [Example 4, 1-METHYL-N-(5-METHYL-2-(2-(TRIFLUOROMETHYL)PHENYL)-1H-INDOL-6-YL)-1H-1,2,4-TRIAZOLE-5-CARBOXAMIDE] here?
Answer: < 100 nM

Question: With Cn1ncnc1C(=O)Nc1ccc2cc(-c3ccccc3C(F)F)[nH]c2c1 [Example 6, N-(2-(2-(Difluoromethyl)phenyl)-1H-indol-6-yl)-1-methyl-1H-1,2,4-triazole-5-carboxamide] as the molecule, how does the IC50 read?
Answer: < 100 nM
